Nine compounds from patent US20180099931A1 (AbbVie S.à.r.l., priority 2016, published 2018) can be followed below.

Read-outs that look alike come from different tables or passages of the source.

This assay concerns the target T1, F508delCFTR (Homo sapiens, UniProt P13569, DEL508-508).
T1 construct: expressed in transfected cells; host or cells: CFBE41o- human lung-derived epithelial cells (CFBE4lo-F508delCFTR-HRP), doxycycline-inducible
Nature of the assay: Cell Surface Expression-Horse Radish Peroxidase (CSE-HRP) Assay.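 As to Maximum % activity (with co-corrector): co-corrector and positive control are both the same reference corrector at 2 µM.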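 As to Maximum % activity (without co-corrector): percent of the 2 µM on-plate positive control corrector response above DMSO.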 The settings on record: for Maximum % activity (with co-corrector): with co-corrector (2 μM); for Maximum % activity (with co-corrector) / Emax: maximum at any tested concentration, normalized to on-plate positive control; for Emax: without co-corrector, read-out: Maximum % activity (without co-corrector). The format is cell-based. How it is done:
Cell Surface Expression-Horse Radish Peroxidase (CSE-HRP) Assay;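 as to Maximum % activity (with co-corrector): co-corrector and positive control are both the same reference corrector at 2 µM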;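 as to Maximum % activity (without co-corrector): percent of the 2 µM on-plate positive control corrector response above DMSO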
The development was achieved by expressing the F508delCFTR mutation along with a horseradish peroxidase (HRP) in the fourth exofacial loop, and then measuring the HRP activity using luminescence readout from these cells, CFBE4lo-F508delCFTR-HRP, that were incubated overnight with the test corrector compounds, either without or with the co-corrector. […] The test compounds were then added either without or with a co-corrector at the required concentrations and further incubated for 18-24 hours at 33° C. The highest concentration tested was 20 μM with an 8-point concentration response curve using a 3-fold dilution in both the test compound without or with the co-corrector. Three replicate plates were run to determine one EC50. All plates contained negative controls (dimethyl sulfoxide, DMSO) and positive control (2 μM of 3-[(2R,4R)-4-({[1-(2,2-difluoro-1,3-benzodioxol-5-yl)cyclopropyl]carbonyl}amino)-7-methoxy-3,4-dihydro-2H-chromen-2-yl]benzoic acid) as well as on-plate concentration response of the positive control. […] The raw counts from the experiment were analyzed using Accelrys® Assay Explorer v3.3.
1−[3*SDPositive Control+3*SDNegative Control/Absolute(MeanPositive Control−MeanNegative Control)]
wherein “SD” is standard deviation.
The % activity measured at each of the 8 test concentrations of the test compound added either without or with a co-corrector (2 μM of 3-[(2R,4R)-4-({[1-(2,2-difluoro-1,3-benzodioxol-5-yl)cyclopropyl]carbonyl}amino)-7-methoxy-3,4-dihydro-2H-chromen-2-yl]benzoic acid) was normalized to the on-plate positive control using the following formulae:
% activity(Test compound without co-corrector)=[(test compound without co-corrector response−DMSO response)/(positive control response−DMSO response)]*100
% activity(Test compound with co-corrector)=[(test compound with co-corrector response−DMSO response)/(positive control response−DMSO response)]*100
The maximum % activity achieved for the test compound either without or with a co-corrector at any tested concentration is presented in Table 4 along with the respective EC50's calculated using the following general sigmoidal curve with variable Hill slope equation (described as Model 42 in the Accelrys® Assay Explorer v3.3 software):
General sigmoidal curve with concentration, response, top, bottom, EC50 and Hill slope. This model describes a sigmoidal curve with an adjustable baseline, a. The equation can be used to fit curves where response is either increasing or decreasing with respect to the independent variable, “x”.
“x” is a concentration of drug under test. “y” is the response. “a” is the maximum response, and “d” is the minimum response “c” is the inflection point (EC50) for the curve. That is, “y” is halfway between the lower and upper asymptotes when x=c. “b” is the slope-factor or Hill coefficient. The sign of b is positive when the response increases with increasing dose and is negative when the response decreases with increasing dose (inhibition).

Setting [1] is: test compound without co-corrector, read-out: EC50 (without co-corrector).
[2] abbreviates: with co-corrector (2 μM of 3-[(2R,4R)-4-({[1-(2,2-difluoro-1,3-benzodioxol-5-yl)cyclopropyl]carbonyl}amino)-7-methoxy-3,4-dihydro-2H-chromen-2-yl]benzoic acid), read-out: EC50 (with co-corrector).

T1 sequence (P13569 with tags, fused parts or gaps DEL508-508): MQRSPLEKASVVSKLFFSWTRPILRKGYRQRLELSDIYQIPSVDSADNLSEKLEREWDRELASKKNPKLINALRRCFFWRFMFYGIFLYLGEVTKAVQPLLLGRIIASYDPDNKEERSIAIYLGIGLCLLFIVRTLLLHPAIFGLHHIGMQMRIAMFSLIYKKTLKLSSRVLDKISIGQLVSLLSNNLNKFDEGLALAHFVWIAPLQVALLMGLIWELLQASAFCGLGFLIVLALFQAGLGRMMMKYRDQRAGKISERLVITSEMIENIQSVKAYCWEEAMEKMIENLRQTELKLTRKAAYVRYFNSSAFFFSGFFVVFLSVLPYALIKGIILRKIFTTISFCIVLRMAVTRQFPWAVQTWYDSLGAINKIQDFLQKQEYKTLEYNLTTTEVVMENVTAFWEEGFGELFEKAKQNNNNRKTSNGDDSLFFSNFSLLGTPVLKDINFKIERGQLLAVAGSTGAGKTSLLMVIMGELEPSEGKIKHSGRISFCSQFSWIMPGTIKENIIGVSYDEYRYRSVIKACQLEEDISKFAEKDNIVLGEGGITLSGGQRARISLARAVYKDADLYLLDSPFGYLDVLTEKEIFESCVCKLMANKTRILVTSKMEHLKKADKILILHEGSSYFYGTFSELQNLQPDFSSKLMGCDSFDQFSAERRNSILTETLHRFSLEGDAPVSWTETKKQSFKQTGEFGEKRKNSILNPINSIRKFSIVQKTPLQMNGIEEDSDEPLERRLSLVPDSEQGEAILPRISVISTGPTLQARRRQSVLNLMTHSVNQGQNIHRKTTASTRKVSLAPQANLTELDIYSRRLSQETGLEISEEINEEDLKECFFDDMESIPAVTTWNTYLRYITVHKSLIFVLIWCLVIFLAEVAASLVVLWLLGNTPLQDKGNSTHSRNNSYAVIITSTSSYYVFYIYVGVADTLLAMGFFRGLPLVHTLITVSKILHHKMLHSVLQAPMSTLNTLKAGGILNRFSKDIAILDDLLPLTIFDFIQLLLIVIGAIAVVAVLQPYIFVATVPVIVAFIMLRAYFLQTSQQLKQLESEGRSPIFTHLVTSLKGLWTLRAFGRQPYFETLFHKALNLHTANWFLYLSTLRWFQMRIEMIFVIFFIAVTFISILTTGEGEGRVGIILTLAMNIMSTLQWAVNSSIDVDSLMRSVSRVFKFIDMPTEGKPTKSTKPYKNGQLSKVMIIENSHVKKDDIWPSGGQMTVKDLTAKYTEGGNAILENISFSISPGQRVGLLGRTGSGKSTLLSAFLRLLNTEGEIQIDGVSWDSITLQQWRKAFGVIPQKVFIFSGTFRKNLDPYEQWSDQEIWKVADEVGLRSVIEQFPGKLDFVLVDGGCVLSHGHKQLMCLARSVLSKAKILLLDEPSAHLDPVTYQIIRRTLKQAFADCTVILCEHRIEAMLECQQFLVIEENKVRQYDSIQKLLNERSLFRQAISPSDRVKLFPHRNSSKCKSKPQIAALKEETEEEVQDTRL

For `Cc1cc(C(F)(F)F)cc(N[C@@H]2[C@@H](C(C)(C)C)[C@H](C(=O)O)N(C(=O)C3CCCCC3)[C@@H]2c2ccccc2)n1` (racemic) [Example 1, rac-(2R,3R,4R,5R)-3-tert-butyl-1-(cyclohexanecarbonyl)-4-{[6-methyl-4-(trifluoromethyl)pyridin-2-yl]amino}-5-phenylpyrrolidine-2-carboxylic acid], the “Maximum % activity (with co-corrector)” value was “+++ (≥350)” and the Emax is under 100%. Moreover, under setting [1], the EC50 – broadly, the concentration at which the effect is half-maximal – fell in the range of 1 to 10 µM. Besides, the EC50 under setting [2] was in the range of 1 to 10 µM.

As for `COc1cc(C(F)(F)F)cc(N[C@@H]2[C@@H](C(C)(C)C)[C@H](C(=O)O)N(C(=O)C3CCCCC3)[C@@H]2c2ccccc2)n1` (racemic) [Example 2, rac-(2R,3R,4R,5R)-3-tert-butyl-1-(cyclohexanecarbonyl)-4-{[6-methoxy-4-(trifluoromethyl)pyridin-2-yl]amino}-5-phenylpyrrolidine-2-carboxylic acid], the “Maximum % activity (with co-corrector)” value is recorded as “+++ (≥350)” and the Emax was under 100%. For the same compound, the EC50 under setting [1] was 1 to 10 µM. Moreover, under setting [2], the EC50 lay within 1 to 10 µM.

As for `COC(C)(C)[C@@H]1[C@@H](Nc2cc(C(F)(F)F)cc(C)n2)[C@@H](c2ccccc2)N(C(=O)C2CCCCC2)[C@H]1C(=O)O` (racemic) [Example 5, rac-(2R,3R,4R,5R)-1-(cyclohexanecarbonyl)-3-(2-methoxypropan-2-yl)-4-{[6-methyl-4-(trifluoromethyl)pyridin-2-yl]amino}-5-phenylpyrrolidine-2-carboxylic acid], the “Maximum % activity (with co-corrector)” value was “+++ (≥350)” and the Emax is under 100%. The EC50 under setting [1] is 1 to 10 µM. Under setting [2], the EC50 lay within 1 to 10 µM.

As for `COc1ccc(C(F)(F)F)cc1CN[C@@H]1[C@@H](C(C)(C)OC)[C@H](C(=O)O)N(C(=O)C2CCCCC2)[C@@H]1c1ccccc1` (racemic) [Example 6, rac-(2R,3R,4R,5R)-1-(cyclohexanecarbonyl)-3-(2-methoxypropan-2-yl)-4-({[2-methoxy-5-(trifluoromethyl)phenyl]methyl}amino)-5-phenylpyrrolidine-2-carboxylic acid], the “Maximum % activity (with co-corrector)” value is listed as “+++ (≥350)” and the Emax was over 200%. The EC50 under setting [1] is 1 to 10 µM. Further, the EC50 under setting [2] was 1 to 10 µM.

With `COc1cc(OC)nc(N[C@@H]2[C@@H](C(C)(C)C)[C@H](C(=O)O)N(C(=O)C3CCCCC3)[C@@H]2c2ccccc2)n1` (racemic) [Example I-1], the “Maximum % activity (with co-corrector)” value is “+++ (≥350)” and the Emax was under 100%. Besides, under setting [1], the EC50 was 1 to 10 µM. Besides, under setting [2], the EC50 fell in the range of 1 to 10 µM.

On to `COc1cc(Cl)nc(N[C@@H]2[C@@H](C(C)(C)C)[C@H](C(=O)O)N(C(=O)C3CCCCC3)[C@@H]2c2ccccc2)n1` (racemic) [Example I-2], for which the “Maximum % activity (with co-corrector)” value is recorded as “+++ (≥350)” and the Emax was under 100%. Also, the EC50 under setting [1] was in the range of 1 to 10 µM. In addition, under setting [2], the EC50 is 1 to 10 µM.

In the case of `CC(N[C@@H]1[C@@H](C(C)(C)C)[C@H](C(=O)O)N(C(=O)C2CCCCC2)[C@@H]1c1ccccc1)c1ccc2c(c1)OC(F)(F)O2` (mixture of isomers) [Example I-3], the “Maximum % activity (with co-corrector)” value is “++ (≥150 and <350)”; the Emax is under 100%. In addition, the EC50 under setting [1] was over 10 µM. The EC50 under setting [2] was in the range of 1 to 10 µM.

For the compound `COc1c(CN[C@@H]2[C@@H](C(C)(C)C)[C@H](C(=O)O)N(C(=O)C3CCCCC3)[C@@H]2c2ccccc2)c(C)nn1C` (racemic) [Example I-4], the “Maximum % activity (with co-corrector)” value is reported as “+ (<150)” and the Emax was under 100%. Further, the EC50 under setting [1] was over 10 µM. In addition, the EC50 under setting [2] is 1 to 10 µM.

For `CC(C)(C)[C@@H]1[C@@H](Nc2nccc(C(F)(F)F)n2)[C@@H](c2ccccc2)N(C(=O)C2CCCCC2)[C@H]1C(=O)O` (racemic) [Example I-5], the “Maximum % activity (with co-corrector)” value is listed as “+++ (≥350)” and the Emax is under 100%. In addition, the EC50 under setting [1] lay in the range of 1 to 10 µM. For the same compound, the EC50 under setting [2] lay within 1 to 10 µM.
